Laboratory results as given in PubChem BioAssay AID330 (DTP/NCI, 2004).
Values joined by “and” are separate entries in the source; they are usually repeats but may differ in a detail not shown here. Equal entries are not always repeated. Inconclusive results and toxic doses are left out. How the source made its calls: active means survival T/C of 150% or more; inactive means T/C below 125% in these data.

System: P388 leukemia ip, CD2F1 mice, survival T/C
Test: NCI In Vivo Anticancer Drug Screen. Data for tumor model P388 Leukemia (intraperitoneal) in CD2F1 (CDF1) mice
Settings: endpoint: median survival time, higher = longer survival
In short: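 Mice carrying the transplanted tumor received test compound or vehicle. Survival was recorded in each group, and the value is the treated-group measurement divided by that of the vehicle-treated control group.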

[1] = dose: 60.0 mg/kg/injection, schedule: Q01DX005 (ip), vehicle: Klucel (hydroxypropylcellulose) (HPC)
[2] = dose: 120.0 mg/kg/injection, schedule: Q01DX005 (ip), vehicle: Klucel (hydroxypropylcellulose) (HPC)
[3] = dose: 240.0 mg/kg/injection, schedule: Q01DX005 (ip), vehicle: Klucel (hydroxypropylcellulose) (HPC)
[4] = dose: 50.0 mg/kg/injection, schedule: Q01DX005 (ip), vehicle: saline with Tween-80
[5] = dose: 100.0 mg/kg/injection, schedule: Q01DX005 (ip), vehicle: saline with Tween-80
[6] = dose: 200.0 mg/kg/injection, schedule: Q01DX005 (ip), vehicle: saline with Tween-80
[7] = dose: 100.0 mg/kg/injection, schedule: Q01DX001 (ip), vehicle: saline with Tween-80
[8] = dose: 200.0 mg/kg/injection, schedule: Q01DX001 (ip), vehicle: saline with Tween-80
[9] = dose: 25.0 mg/kg/injection, schedule: Q04DX003 (ip), vehicle: saline with Tween-80
[10] = dose: 50.0 mg/kg/injection, schedule: Q04DX003 (ip), vehicle: saline with Tween-80
[11] = dose: 100.0 mg/kg/injection, schedule: Q04DX003 (ip), vehicle: saline with Tween-80
[12] = dose: 200.0 mg/kg/injection, schedule: Q04DX003 (ip), vehicle: saline with Tween-80
[13] = dose: 60.0 mg/kg/injection, schedule: Q01DX005 (ip), vehicle: saline with Tween-80
[14] = dose: 120.0 mg/kg/injection, schedule: Q01DX005 (ip), vehicle: saline with Tween-80
[15] = dose: 50.0 mg/kg/injection, schedule: Q01DX009 (ip), vehicle: saline
[16] = dose: 100.0 mg/kg/injection, schedule: Q01DX009 (ip), vehicle: saline
[17] = dose: 200.0 mg/kg/injection, schedule: Q01DX009 (ip), vehicle: saline
[18] = dose: 400.0 mg/kg/injection, schedule: Q04DX003 (ip), vehicle: saline with Tween-80

Measured: T/C

CC(=O)N1C(=O)CC23c4cccc([N+](=O)[O-])c4C(=O)N2CCCN13 (stereo not drawn)
inactive: [1] 97 % of control | [2] 97 % of control | [3] 91 % of control

COc1ccc(S(=O)(=O)N/N=C/C(=O)OCOC(=O)C(C)(C)C)cc1
inactive: dose: 5.0 mg/kg/injection, schedule: Q01DX005 (ip), vehicle: other 111 % of control | dose: 5.0 mg/kg/injection, schedule: Q01DX005 (ip), vehicle: saline + Tween-80 + alcohol 116 % of control | dose: 10.0 mg/kg/injection, schedule: Q01DX005 (ip), vehicle: saline + Tween-80 + alcohol 111 % of control | dose: 12.5 mg/kg/injection, schedule: Q01DX005 (ip), vehicle: saline + Tween-80 + alcohol 119 % of control | dose: 25.0 mg/kg/injection, schedule: Q01DX005 (ip), vehicle: saline + Tween-80 + alcohol 111 % of control

CC(C)(C)c1cc(=O)[nH]c(NC(N)=O)n1
inactive: dose: 50.0 mg/kg/injection, schedule: Q01DX009 (ip), vehicle: saline with Tween-80 96 % of control | dose: 100.0 mg/kg/injection, schedule: Q01DX009 (ip), vehicle: saline with Tween-80 90 % of control | dose: 200.0 mg/kg/injection, schedule: Q01DX009 (ip), vehicle: saline with Tween-80 96 % of control

COC=C=CC(C)(C)OC
inactive: dose: 25.0 mg/kg/injection, schedule: Q01DX005 (ip), vehicle: Klucel (hydroxypropylcellulose) (HPC) 102 % of control and 110 % of control | dose: 50.0 mg/kg/injection, schedule: Q01DX005 (ip), vehicle: Klucel (hydroxypropylcellulose) (HPC) 103 % of control and 91 % of control and 95 % of control | dose: 100.0 mg/kg/injection, schedule: Q01DX005 (ip), vehicle: Klucel (hydroxypropylcellulose) (HPC) 103 % of control and 112 % of control and 121 % of control | dose: 200.0 mg/kg/injection, schedule: Q01DX005 (ip), vehicle: Klucel (hydroxypropylcellulose) (HPC) 100 % of control and 103 % of control and 114 % of control

C/C(=C/c1nc2ccccc2[nH]1)c1ccccc1
inactive: dose: 25.0 mg/kg/injection, schedule: Q01DX005 (ip), vehicle: saline with Tween-80 100 % of control | [4] 100 % of control and 107 % of control | [5] 121 % of control and 96 % of control | [6] 95 % of control and 96 % of control

ClCC(OCc1ccccc1)OCc1ccccc1
inactive: dose: 12.5 mg/kg/injection, schedule: Q01DX009 (ip), vehicle: other 114 % of control | dose: 25.0 mg/kg/injection, schedule: Q01DX009 (ip), vehicle: other 100 % of control | dose: 50.0 mg/kg/injection, schedule: Q01DX009 (ip), vehicle: other 100 % of control | dose: 100.0 mg/kg/injection, schedule: Q01DX009 (ip), vehicle: other 111 % of control | dose: 200.0 mg/kg/injection, schedule: Q01DX009 (ip), vehicle: other 119 % of control

CCN1c2ccccc2S(=O)(=O)n2c(/C=C/c3ccc(OC)cc3)nnc21
inactive: [7] 90 % of control | [8] 88 % of control

N=c1sccn1CC(O)c1ccccc1 (stereo not drawn)
inactive: dose: 100.0 mg/kg/injection, schedule: Q01DX001 (ip), vehicle: Klucel (hydroxypropylcellulose) (HPC) 100 % of control | dose: 200.0 mg/kg/injection, schedule: Q01DX001 (ip), vehicle: Klucel (hydroxypropylcellulose) (HPC) 100 % of control

O=C(Cn1nnc(N2CCOCC2)n1)N/N=C/c1ccccc1Cl
inactive: [1] 91 % of control | [2] 87 % of control | [3] 87 % of control

CCN(CC)CCNc1ccc(CO)c2oc3ccc(OS(=O)(=O)c4ccc(C)cc4)cc3c(=O)c12
inactive: [4] 99 % of control | [5] 106 % of control | [6] 122 % of control

CN=C(C)c1ccc(N(C)C)cc1
inactive: dose: 12.5 mg/kg/injection, schedule: Q04DX003 (ip), vehicle: saline with Tween-80 100 % of control | [9] 100 % of control and 105 % of control | [10] 110 % of control and 97 % of control | [11] 105 % of control and 115 % of control | [12] 100 % of control and 120 % of control

O=C(COc1cc(Cl)c(Cl)cc1Cl)OCCOc1cc(Cl)c(Cl)cc1Cl
inactive: dose: 1.0 mg/kg/injection, schedule: Q01DX009 (ip), vehicle: saline with Tween-80 100 % of control | dose: 2.0 mg/kg/injection, schedule: Q01DX009 (ip), vehicle: saline with Tween-80 100 % of control | dose: 4.0 mg/kg/injection, schedule: Q01DX009 (ip), vehicle: saline with Tween-80 95 % of control

C=C1N=NN(c2cccc(C(F)(F)F)c2)C1N1CCOCC1 (stereo not drawn)
inactive: [13] 99 % of control | [14] 100 % of control

O=c1cc(CCl)occ1O
inactive: [15] 100 % of control and 113 % of control | [16] 101 % of control and 103 % of control | [17] 100 % of control and 113 % of control | dose: 400.0 mg/kg/injection, schedule: Q01DX009 (ip), vehicle: saline 110 % of control and 95 % of control

COc1ccc(OC)c(C(/C=N/O)OC)c1 (stereo not drawn)
inactive: [9] 98 % of control and 100 % of control | [10] 98 % of control and 94 % of control | [11] 99 % of control and 87 % of control | [12] 103 % of control and 94 % of control | [18] 99 % of control

CCCCOC(=O)C1(N)CCCC1
inactive: dose: 100.0 mg/kg/injection, schedule: Q04DX003 (ip), vehicle: saline 100 % of control | dose: 200.0 mg/kg/injection, schedule: Q04DX003 (ip), vehicle: saline 109 % of control

CC1=NN(C(=O)c2ccc(Cl)cc2)C(=O)C1N=Nc1ccc(S(=O)(=O)Nc2nc(C)cc(C)n2)cc1 (stereo not drawn)
inactive: [7] 92 % of control | [8] 86 % of control | dose: 400.0 mg/kg/injection, schedule: Q01DX001 (ip), vehicle: saline with Tween-80 89 % of control

CCCCCCCCCCCCSSSCCCCCCCCCCCC
inactive: [15] 106 % of control | [16] 97 % of control | [17] 99 % of control and 87 % of control

CC(c1ccccc1)n1ccnc1CC#N (stereo not drawn)
inactive: dose: 15.0 mg/kg/injection, schedule: Q01DX005 (ip), vehicle: saline 101 % of control | dose: 30.0 mg/kg/injection, schedule: Q01DX005 (ip), vehicle: saline 100 % of control | dose: 60.0 mg/kg/injection, schedule: Q01DX005 (ip), vehicle: saline 99 % of control and 98 % of control

CCCCCCCNC1=C(N2CC2)C(=O)C(NCCCCCCC)=C(N2CC2)C1=O
inactive: dose: 1.25 mg/kg/injection, schedule: Q01DX009 (ip), vehicle: saline 100 % of control | dose: 2.5 mg/kg/injection, schedule: Q01DX009 (ip), vehicle: saline 105 % of control and 107 % of control | dose: 5.0 mg/kg/injection, schedule: Q01DX009 (ip), vehicle: saline 105 % of control and 106 % of control | dose: 10.0 mg/kg/injection, schedule: Q01DX009 (ip), vehicle: saline 106 % of control and 94 % of control | dose: 20.0 mg/kg/injection, schedule: Q01DX009 (ip), vehicle: saline 115 % of control and 90 % of control

C/C=C\c1ccc(OC(=O)NC)c(OC)c1
inactive: [13] 100 % of control | [14] 104 % of control | dose: 240.0 mg/kg/injection, schedule: Q01DX005 (ip), vehicle: saline with Tween-80 100 % of control

CC(=O)C1=C(c2ccc([N+](=O)[O-])cc2)NC(=O)NC1c1ccco1 (stereo not drawn)
inactive: [11] 95 % of control | [12] 100 % of control | [18] 100 % of control

Cc1ccc(N2C(=O)CC3(CCCC3)C2=O)cc1C
inactive: dose: 100.0 mg/kg/injection, schedule: Q04DX003 (ip), vehicle: Klucel (hydroxypropylcellulose) (HPC) 100 % of control | dose: 200.0 mg/kg/injection, schedule: Q04DX003 (ip), vehicle: Klucel (hydroxypropylcellulose) (HPC) 98 % of control | dose: 400.0 mg/kg/injection, schedule: Q04DX003 (ip), vehicle: Klucel (hydroxypropylcellulose) (HPC) 98 % of control
